Reference: ChEMBL document CHEMBL1201862, “PubChem BioAssay data set” (2004)
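Dose response: 5 concentrations. Exposure: 48 h. Format: 96-well plates. Endpoint: linear interpolation; highest concentration if not reached. The concentration for 50% growth inhibition is given as GI50.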 Activity calls are given as the source filed them. Rule as the data show it: active = GI50 up to about 1.1 µM and inactive = higher.

How the values were obtained:
Assay in all cases: inhibition of tumour cell growth, NCI panel, 48 h
SK-MEL-28 = tested on: SK-MEL-28
LXFL 529 = tested on: LXFL 529
A549 = tested on: A549
KM12 = tested on: KM12
SNB-75 = tested on: SNB-75
HCT-116 = tested on: HCT-116
HCC 2998 = tested on: HCC 2998
OVCAR-8 = tested on: OVCAR-8
HOP-92 = tested on: HOP-92
786-0 = tested on: 786-0
HOP-18 = tested on: HOP-18
M19-MEL = tested on: M19-MEL
IGROV-1 = tested on: IGROV-1
MOLT-4 = tested on: MOLT-4
DMS-114 = tested on: DMS-114
COLO 205 = tested on: COLO 205
DMS-273 = tested on: DMS-273
ACHN = tested on: ACHN
SF-539 = tested on: SF-539
OVCAR-5 = tested on: OVCAR-5
K562 = tested on: K562
OVCAR-3 = tested on: OVCAR-3
CAKI-1 = tested on: CAKI-1
NCI-H23 = tested on: NCI-H23
U-251 = tested on: U-251
HL-60 = tested on: HL-60
SN12C = tested on: SN12C
RXF 631 = tested on: RXF 631
UACC-257 = tested on: UACC-257
SK-MEL-2 = tested on: SK-MEL-2
KM-20L2 = tested on: KM-20L2
SK-MEL-5 = tested on: SK-MEL-5
SW-620 = tested on: SW-620
TK-10 = tested on: TK-10
HOP-62 = tested on: HOP-62
SNB-78 = tested on: SNB-78
UO-31 = tested on: UO-31
NCI-H226 = tested on: NCI-H226
RXF 393 = tested on: RXF 393
A498 = tested on: A498
SF-268 = tested on: SF-268
RPMI-8226 = tested on: RPMI-8226
LOX IMVI = tested on: LOX IMVI
SK-OV-3 = tested on: SK-OV-3
OVCAR-4 = tested on: OVCAR-4
SR = tested on: SR
EKVX = tested on: EKVX
SF-295 = tested on: SF-295
CCRF-CEM = tested on: CCRF-CEM
NCI-H460 = tested on: NCI-H460
Malme-3M = tested on: Malme-3M
M14 = tested on: M14
HT-29 = tested on: HT-29
HCT-15 = tested on: HCT-15
DLD-1 = tested on: DLD-1
UACC-62 = tested on: UACC-62
SNB-19 = tested on: SNB-19
NCI-H522 = tested on: NCI-H522

Q: How did the GI50 (SK-MEL-28) turn out when `CS/C(=N\c1nccs1)NC(=O)c1cccc(Cl)c1` was run?
A: > 100 µM (inactive)

Q: What about the GI50 (LXFL 529) of the same compound?
A: 91 µM (inactive)

Q: What about the GI50 (A549) of the same compound?
A: > 100 µM (inactive)

Q: And the GI50 (KM12)?
A: > 100 µM (inactive)

Q: What about the GI50 (SNB-75) of the same compound?
A: 49.5 µM (inactive)

Q: What about the GI50 (HCT-116) of the same compound?
A: > 100 µM (inactive)

Q: What about the GI50 (HCC 2998) of the same compound?
A: > 100 µM (inactive)

Q: And the GI50 (OVCAR-8)?
A: > 100 µM (inactive)

Q: What about the GI50 (HOP-92) of the same compound?
A: 71.3 µM (inactive)

Q: And the GI50 (786-0)?
A: > 100 µM (inactive)

Q: What about the GI50 (HOP-18) of the same compound?
A: > 100 µM (inactive)

Q: What about the GI50 (M19-MEL) of the same compound?
A: 85.9 µM (inactive)

Q: And the GI50 (IGROV-1)?
A: > 100 µM (inactive)

Q: What about the GI50 (MOLT-4) of the same compound?
A: 31 µM (inactive)

Q: What about the GI50 (DMS-114) of the same compound?
A: > 100 µM (inactive)

Q: And the GI50 (COLO 205)?
A: 46.1 µM (inactive)

Q: What about the GI50 (DMS-273) of the same compound?
A: > 100 µM (inactive)

Q: What about the GI50 (ACHN) of the same compound?
A: > 100 µM (inactive)

Q: And the GI50 (SF-539)?
A: > 100 µM (inactive)

Q: What about the GI50 (OVCAR-5) of the same compound?
A: > 100 µM (inactive)

Q: What about the GI50 (K562) of the same compound?
A: > 100 µM (inactive)

Q: And the GI50 (OVCAR-3)?
A: 75.2 µM (inactive)

Q: And the GI50 (CAKI-1)?
A: 50.5 µM (inactive)

Q: What about the GI50 (NCI-H23) of the same compound?
A: > 100 µM (inactive)

Q: And the GI50 (U-251)?
A: 72.1 µM (inactive)

Q: What about the GI50 (HL-60) of the same compound?
A: 56.8 µM (inactive)

Q: What about the GI50 (SN12C) of the same compound?
A: 79.4 µM (inactive)

Q: And the GI50 (RXF 631)?
A: 16.8 µM (inactive)

Q: What about the GI50 (UACC-257) of the same compound?
A: > 100 µM (inactive)

Q: What about the GI50 (SK-MEL-2) of the same compound?
A: > 100 µM (inactive)

Q: What about the GI50 (KM-20L2) of the same compound?
A: > 100 µM (inactive)

Q: And the GI50 (SK-MEL-5)?
A: > 100 µM (inactive)

Q: And the GI50 (SW-620)?
A: > 100 µM (inactive)

Q: And the GI50 (TK-10)?
A: 73.5 µM (inactive)

Q: What about the GI50 (HOP-62) of the same compound?
A: > 100 µM (inactive)

Q: And the GI50 (SNB-78)?
A: > 100 µM (inactive)

Q: What about the GI50 (UO-31) of the same compound?
A: 62.4 µM (inactive)

Q: And the GI50 (NCI-H226)?
A: > 100 µM (inactive)

Q: What about the GI50 (RXF 393) of the same compound?
A: > 100 µM (inactive)

Q: And the GI50 (A498)?
A: 81.8 µM (inactive)

Q: What about the GI50 (SF-268) of the same compound?
A: > 100 µM (inactive)

Q: What about the GI50 (RPMI-8226) of the same compound?
A: 97.7 µM (inactive)

Q: And the GI50 (LOX IMVI)?
A: 83.6 µM (inactive)

Q: And the GI50 (SK-OV-3)?
A: > 100 µM (inactive)

Q: And the GI50 (OVCAR-4)?
A: 68.1 µM (inactive)

Q: What about the GI50 (SR) of the same compound?
A: 24.6 µM (inactive)

Q: And the GI50 (EKVX)?
A: 19 µM (inactive)

Q: What about the GI50 (SF-295) of the same compound?
A: 77.8 µM (inactive)

Q: And the GI50 (CCRF-CEM)?
A: 72.6 µM (inactive)

Q: What about the GI50 (NCI-H460) of the same compound?
A: > 100 µM (inactive)

Q: What about the GI50 (Malme-3M) of the same compound?
A: > 100 µM (inactive)

Q: And the GI50 (M14)?
A: > 100 µM (inactive)

Q: What about the GI50 (HT-29) of the same compound?
A: > 100 µM (inactive)

Q: What about the GI50 (HCT-15) of the same compound?
A: 24.9 µM

Q: What about the GI50 (DLD-1) of the same compound?
A: > 100 µM (inactive)

Q: What about the GI50 (UACC-62) of the same compound?
A: > 100 µM (inactive)

Q: What about the GI50 (SNB-19) of the same compound?
A: > 100 µM (inactive)

Q: And the GI50 (NCI-H522)?
A: 34.4 µM (inactive)

Q: For `N#CC(C#N)=C1NN=C(Cl)c2ccccc21`, which GI50 (SK-MEL-28) is on record?
A: 61.8 µM (inactive)

Q: And the GI50 (LXFL 529)?
A: 65 µM (inactive)

Q: What about the GI50 (A549) of the same compound?
A: > 100 µM (inactive)

Q: What about the GI50 (KM12) of the same compound?
A: > 100 µM (inactive)

Q: And the GI50 (SNB-75)?
A: 33.9 µM (inactive)

Q: What about the GI50 (HCC 2998) of the same compound?
A: > 100 µM (inactive)

Q: What about the GI50 (OVCAR-8) of the same compound?
A: > 100 µM (inactive)

Q: What about the GI50 (HOP-92) of the same compound?
A: 47.2 µM (inactive)

Q: And the GI50 (786-0)?
A: > 100 µM (inactive)

Q: What about the GI50 (HOP-18) of the same compound?
A: 37.3 µM (inactive)

Q: What about the GI50 (M19-MEL) of the same compound?
A: > 100 µM (inactive)

Q: What about the GI50 (IGROV-1) of the same compound?
A: > 100 µM (inactive)

Q: And the GI50 (MOLT-4)?
A: > 100 µM (inactive)

Q: What about the GI50 (DMS-114) of the same compound?
A: > 100 µM (inactive)

Q: What about the GI50 (COLO 205) of the same compound?
A: > 100 µM (inactive)

Q: And the GI50 (DMS-273)?
A: > 100 µM (inactive)

Q: And the GI50 (ACHN)?
A: > 100 µM (inactive)

Q: What about the GI50 (SF-539) of the same compound?
A: 85.5 µM (inactive)

Q: And the GI50 (OVCAR-5)?
A: > 100 µM (inactive)

Q: What about the GI50 (K562) of the same compound?
A: > 100 µM (inactive)

Q: And the GI50 (OVCAR-3)?
A: > 100 µM (inactive)

Q: And the GI50 (CAKI-1)?
A: > 100 µM (inactive)

Q: And the GI50 (NCI-H23)?
A: 59.4 µM (inactive)

Q: And the GI50 (U-251)?
A: 96.4 µM (inactive)

Q: And the GI50 (HL-60)?
A: 43.2 µM (inactive)

Q: And the GI50 (SN12C)?
A: 96.4 µM (inactive)

Q: And the GI50 (RXF 631)?
A: 80.5 µM (inactive)

Q: And the GI50 (UACC-257)?
A: 98.6 µM (inactive)

Q: And the GI50 (SK-MEL-2)?
A: > 100 µM (inactive)

Q: What about the GI50 (KM-20L2) of the same compound?
A: > 100 µM (inactive)

Q: What about the GI50 (SK-MEL-5) of the same compound?
A: > 100 µM (inactive)

Q: And the GI50 (SW-620)?
A: > 100 µM (inactive)

Q: And the GI50 (TK-10)?
A: > 100 µM (inactive)

Q: And the GI50 (HOP-62)?
A: 67.8 µM (inactive)

Q: And the GI50 (UO-31)?
A: 50.7 µM (inactive)

Q: And the GI50 (RXF 393)?
A: > 100 µM (inactive)

Q: What about the GI50 (SF-268) of the same compound?
A: 72.9 µM (inactive)

Q: And the GI50 (RPMI-8226)?
A: 57.3 µM (inactive)

Q: And the GI50 (LOX IMVI)?
A: > 100 µM (inactive)

Q: What about the GI50 (SK-OV-3) of the same compound?
A: > 100 µM (inactive)

Q: And the GI50 (OVCAR-4)?
A: > 100 µM (inactive)

Q: What about the GI50 (EKVX) of the same compound?
A: > 100 µM (inactive)

Q: What about the GI50 (SF-295) of the same compound?
A: > 100 µM (inactive)

Q: And the GI50 (CCRF-CEM)?
A: 88.1 µM (inactive)

Q: What about the GI50 (NCI-H460) of the same compound?
A: > 100 µM (inactive)

Q: And the GI50 (Malme-3M)?
A: 30.3 µM (inactive)

Q: And the GI50 (M14)?
A: > 100 µM (inactive)

Q: What about the GI50 (HT-29) of the same compound?
A: > 100 µM (inactive)

Q: And the GI50 (HCT-15)?
A: > 100 µM

Q: What about the GI50 (DLD-1) of the same compound?
A: > 100 µM (inactive)

Q: What about the GI50 (UACC-62) of the same compound?
A: 70.5 µM (inactive)

Q: And the GI50 (NCI-H522)?
A: 72.1 µM (inactive)
